Experimental data as given in the supplement of paper PMC10307832.

Legend:
Test in all cases: relative viability (nuclei count vs DMSO), 5 days (fraction); higher = more cells survive
[1] = compound: CC1=CC(=CC=C1)NC2=NC(=CS2)C3=CC=NC=C3 + CC(C)C[C@H](NC(=O)[C@H](Cc1ccccc1)NC(=O)c1cnccn1)B(O)O [Bortezomib] (partner 0.002 µM)
How it was run: (§1)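 One day after seeding in 1536-well plates, lung cancer cell lines were dosed by pin tool. Dosing was either single-drug or a fixed anchor-drug dose plus five library-drug doses (not always all listed) in √10 steps. After 5 days, nuclei were stained in one fix-and-stain step and counted on 4× images, and relative viability is the nuclei count of treated wells over that of vehicle wells, given as the median of duplicate plates.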

[2] = compound: CC1=CC(=CC=C1)NC2=NC(=CS2)C3=CC=NC=C3 + CS(=O)(=O)CCNCc1ccc(-c2ccc3ncnc(Nc4ccc(OCc5cccc(F)c5)c(Cl)c4)c3c2)o1 [Lapatinib] (partner 2 µM)
How it was run: as §1

[3] = compound: CC1=CC(=CC=C1)NC2=NC(=CS2)C3=CC=NC=C3 + Cc1cc(Nc2cc(N3CCN(C)CC3)nc(Sc3ccc(NC(=O)C4CC4)cc3)n2)n[nH]1 [Tozasertib] (partner 0.1 µM)
How it was run: as §1

[4] = compound: CC1=CC(=CC=C1)NC2=NC(=CS2)C3=CC=NC=C3 + O=C(c1cc(Cc2n[nH]c(=O)c3ccccc23)ccc1F)N1CCN(C(=O)C2CC2)CC1 [Olaparib] (partner 8 µM)
How it was run: as §1

Cell Line | relative viability ([1]; first compound 0.08 µM) | relative viability ([1]; first compound 0.253 µM) | relative viability ([1]; first compound 0.8 µM) | relative viability ([1]; first compound 2.53 µM) | relative viability ([1]; first compound 8 µM) | relative viability ([2]; first compound 0.08 µM) | relative viability ([2]; first compound 0.253 µM) | relative viability ([2]; first compound 0.8 µM) | relative viability ([2]; first compound 2.53 µM) | relative viability ([2]; first compound 8 µM) | relative viability ([3]; first compound 0.08 µM) | relative viability ([3]; first compound 0.253 µM) | relative viability ([3]; first compound 0.8 µM) | relative viability ([3]; first compound 2.53 µM) | relative viability ([3]; first compound 8 µM) | relative viability ([4]; first compound 0.08 µM) | relative viability ([4]; first compound 0.253 µM) | relative viability ([4]; first compound 0.8 µM) | relative viability ([4]; first compound 2.53 µM) | relative viability ([4]; first compound 8 µM)
HCC-366 | 0.875 | 1.04 | 0.998 | 1.06 | 0.985 | 0.848 | 1.07 | 1.01 | 1.05 | 0.951 | 0.126 | 0.0811 | 0.081 | 0.0599 | 0.0456 | 0.352 | 0.331 | 0.261 | 0.286 | 0.21
NCI-H1793 | – | – | – | – | – | – | 0.557 | 0.642 | 0.565 | 0.657 | 0.298 | 0.335 | 0.27 | 0.242 | 0.21 | 0.889 | 0.647 | 0.799 | 0.68 | 0.81
NCI-H727 | 0.547 | 0.774 | 0.834 | 0.549 | 0.446 | 0.489 | 0.777 | 0.674 | 0.706 | 0.668 | – | 0.582 | 0.539 | 0.58 | 0.458 | 0.67 | – | 0.679 | – | 0.743
RERF-LC-KJ | 0.963 | 1.07 | 0.786 | 0.813 | 0.7 | 0.73 | 0.766 | 0.693 | 0.741 | 0.728 | 0.447 | 0.476 | 0.438 | 0.382 | 0.259 | 0.509 | 0.258 | 0.184 | 0.181 | 0.163
NCI-H1623 | – | – | – | – | – | – | – | – | – | – | 0.393 | 0.403 | 0.377 | 0.385 | 0.363 | – | – | – | – | –
Calu-6 | 0.951 | 0.838 | 0.88 | 0.94 | 0.926 | 0.945 | 0.969 | 0.86 | 0.873 | 0.823 | – | – | – | – | – | 0.422 | 0.471 | 0.43 | 0.479 | 0.407
LC-2-ad | 0.884 | 0.94 | 1.13 | 0.873 | 0.875 | 0.953 | 0.86 | 0.948 | 0.853 | 0.788 | 0.448 | – | 0.398 | 0.371 | 0.384 | 0.661 | 0.693 | 0.657 | 0.627 | 0.616
CAL-12T | 0.757 | – | 1.01 | 0.719 | 0.954 | 0.534 | – | 0.649 | 0.608 | 0.678 | 0.381 | 0.277 | 0.32 | 0.25 | 0.185 | 0.614 | 0.677 | 0.609 | 0.792 | 0.617
SK-LU-1 | 0.905 | 1.07 | 0.884 | 1.3 | 1.19 | 0.994 | 1.05 | – | 0.835 | 0.937 | 0.301 | 0.293 | – | 0.32 | 0.302 | 0.49 | 0.435 | – | 0.459 | 0.433
NCI-H1651 | 0.939 | 0.923 | 0.933 | 0.822 | 0.987 | 0.721 | 0.704 | 0.865 | 0.713 | 0.781 | 0.62 | 0.684 | 0.561 | 0.531 | 0.51 | 0.185 | 0.179 | 0.166 | 0.177 | 0.186
